Source: US20040180902A1, “3-Substituted quinoline-4-carboxamide derivatives as nk-3 and nk-2 receptor antagonists” (priority 2001, published 2004)

For `C[C@H](NC(=O)c1c(CN2CCN(CCO)C(=O)C2)c(-c2cccs2)nc2ccccc12)C1CCCCC1` [Example 1, 3-[4-(2-Hydroxy-ethyl)-3-oxo-piperazin-1-ylmethyl]-2-thiophen-2-yl-quinoline-4-carboxylic acid ((S)-1-cyclohexyl-ethyl)-amide], the melting point was 212 to 215 °C. For `C[C@H](NC(=O)c1c(CN2CCNC(=O)C2)c(-c2ccccc2)nc2cc(F)c(F)cc12)C1CCCCC1` [Example 2, 6,7-Difluoro-3-(3-oxo-piperazin-1-ylmethyl)-2-phenyl-quinoline-4-carboxylic acid ((S)-1-cyclohexyl-ethyl)-amide], the melting point was 185 to 190 °C. `C[C@H](NC(=O)c1c(CN2CCN(CCOCCO)C(=O)C2)c(-c2ccccc2)nc2ccc(F)cc12)C1CCCCC1` [Example 3, 6-Fluoro-3-{4-[2-(2-hydroxy-ethoxy)-ethyl]-3-oxo-piperazin-1-ylmethyl}-2-phenyl-quinoline-4-carboxylic acid ((S)-1-cyclohexyl-ethyl)-amide] gave a melting point of 110 to 112 °C. `C[C@H](NC(=O)c1c(CN2CCN(C[C@H](O)CO)C(=O)C2)c(-c2ccccc2)nc2ccccc12)C1CCCCC1` [Example 4, (S) 3-[4-(2,3-Dihydroxy-propyl)-3-oxo-piperazin-1-ylmethyl]-2-phenyl-quinoline-4-carboxylic acid ((S)-1-cyclohexyl-ethyl)-amide] showed a melting point of 125 to 127 °C. `C[C@H](NC(=O)c1c(CN2CCN(C[C@@H](O)CO)C(=O)C2)c(-c2ccccc2)nc2ccccc12)C1CCCCC1` [Example 5, (R) 3-[4-(2,3-Dihydroxy-propyl)-3-oxo-piperazin-1-ylmethyl]-2-phenyl-quinoline-4-carboxylic acid ((S)-1-cyclohexyl-ethyl)-amide] gave a melting point of 133 to 135 °C. In the case of `C[C@H](NC(=O)c1c(CN2CCN(CCCO)C(=O)C2)c(-c2ccccc2)nc2ccc(F)cc12)C1CCCCC1` [Example 6, 6-Fluoro-3-[4-(3-hydroxy-propyl)-3-oxo-piperazin-1-ylmethyl]-2-phenyl-quinoline-4-carboxylic acid ((S)-1-cyclohexyl-ethyl)-amide], the melting point is reported as 110 to 130 °C. Compound `C[C@H](NC(=O)c1c(CN2CCN(CCO)C(=O)C2)c(-c2ccccc2)nc2ccc(F)cc12)C1CCCCC1` [Example 7, 6-Fluoro-3-[4-(2-hydroxy-ethyl)-3-oxo-piperazin-1-ylmethyl]-2-phenyl-quinoline-4-carboxylic acid ((S)-1-cyclohexyl-ethyl)-amide] has a melting point of 120 to 122 °C. `C[C@H](NC(=O)c1c(CN2CCN(CCOCCO)CC2)c(-c2ccccc2)nc2ccc(F)cc12)C1CCCCC1` [Example 8, 6-Fluoro-3-{4-[2-(2-hydroxy-ethoxy)-ethyl]-piperazin-1-ylmethyl}-2-phenyl-quinoline-4-carboxylic acid ((S)-1-cyclohexyl-ethyl)-amide] showed a melting point of 142 to 144 °C. Compound `C[C@H](NC(=O)c1c(CN2CCN(CCCO)CC2)c(-c2ccccc2)nc2ccc(F)cc12)C1CCCCC1` [Example 9, 6-Fluoro-3-[4-(3-hydroxy-propyl)-piperazin-1-ylmethyl]-2-phenyl-quinoline-4-carboxylic acid ((S)-1-cyclohexyl-ethyl)-amide] has a melting point of 182 to 184 °C. `C[C@H](NC(=O)c1c(CN2CCN(CCO)CC2)c(-c2ccccc2)nc2ccc(F)cc12)C1CCCCC1` [Example 10, 6-Fluoro-3-[4-(2-hydroxy-ethyl)-piperazin-1-ylmethyl]-2-phenyl-quinoline-4-carboxylic acid ((S)-1-cyclohexyl-ethyl)-amide] gave a melting point of 114 to 116 °C. Work on `C[C@H](NC(=O)c1c(CN2CCN(CCOCCO)CC2)c(-c2cccs2)nc2ccccc12)C1CCCCC1` [Example 11, 3-{4-[2-(2-Hydroxy-ethoxy)-ethyl]-piperazin-1-ylmethyl}-2-thiophen-2-yl-quinoline-4-carboxylic acid ((S)-1-cyclohexyl-ethyl)-amide] yielded a melting point of 182 to 188 °C. `C[C@H](NC(=O)c1c(CN2CCN(CCO)CC2)c(-c2cccs2)nc2ccccc12)C1CCCCC1` [Example 12, 3-[4-(2-Hydroxy-ethyl)-piperazin-1-ylmethyl]-2-thiophen-2-yl-quinoline-4-carboxylic acid ((S)-1-cyclohexyl-ethyl)-amide] gave a melting point of 110 °C. In the case of `C[C@H](NC(=O)c1c(CN2CCN(CCCO)CC2)c(-c2ccccc2)nc2ccccc12)C1CCCCC1` [Example 13, 3-[4-(3-Hydroxy-propyl)-piperazin-1-ylmethyl]-2-phenyl-quinoline-4-carboxylic acid ((S)-1-cyclohexyl-ethyl)-amide], the melting point is reported as 168 to 170 °C. Compound `C[C@H](NC(=O)c1c(CN2CCN(CCCO)C(=O)C2)c(-c2ccccc2)nc2ccccc12)C1CCCCC1` [Example 14, 3-[4-(3-Hydroxy-propyl)-3-oxo-piperazin-1-ylmethyl]-2-phenyl-quinoline-4-carboxylic acid ((S)-1-cyclohexyl-ethyl)-amide] has a melting point of 120 to 122 °C. For `C[C@H](NC(=O)c1c(CN2CCNCC2=O)c(-c2ccccc2)nc2ccc(F)cc12)C1CCCCC1` [Example 15, 6-Fluoro-3-(2-oxo-piperazin-1-ylmethyl)-2-phenyl-quinoline-4-carboxylic acid ((S)-1-cyclohexyl-ethyl)-amide], the melting point was 240 to 242 °C. In the case of `C[C@H](NC(=O)c1c(CN2CCN(CCOCCO)C(=O)C2)c(-c2ccccc2)nc2ccccc12)C1CCCCC1` [Example 16, 3-{4-[2-(2-Hydroxy-ethoxy)-ethyl]-3-oxo-piperazin-1-ylmethyl}-2-phenyl-quinoline-4-carboxylic acid ((S)-1-cyclohexyl-ethyl)-amide], the melting point is reported as 125 to 128 °C. `C[C@H](NC(=O)c1c(CN2CCN(CCOCCO)C(=O)C2)c(-c2cccs2)nc2ccccc12)C1CCCCC1` [Example 17, 3-{4-[2-(2-Hydroxy-ethoxy)-ethyl]-3-oxo-piperazin-1-ylmethyl}-2-thiophen-2-yl-quinoline-4-carboxylic acid ((S)-1-cyclohexyl-ethyl)-amide] showed a melting point of 102 to 104 °C. Work on `C[C@H](NC(=O)c1c(CN2CCN(CCCO)C(=O)C2)c(-c2cccs2)nc2ccccc12)C1CCCCC1` [Example 18, 3-[4-(3-Hydroxy-propyl)-3-oxo-piperazin-1-ylmethyl]-2-thiophen-2-yl-quinoline-4-carboxylic acid ((S)-1-cyclohexyl-ethyl)-amide] yielded a melting point of 117 to 119 °C. With `C[C@H](NC(=O)c1c(CN2CCN(C[C@H](O)CO)CC2)c(-c2ccccc2)nc2ccccc12)C1CCCCC1` [Example 19, 3-[4-((S)-2,3-Dihydroxy-propyl)-piperazin-1-ylmethyl]-2-phenyl-quinoline-4-carboxylic acid ((S)-1-cyclohexyl-ethyl)-amide] the melting point was 124 to 126 °C. In the case of `C[C@H](NC(=O)c1c(CN2CCN(C[C@@H](O)CO)CC2)c(-c2ccccc2)nc2ccccc12)C1CCCCC1` [Example 20, 3-[4-((R)-2,3-Dihydroxy-propyl)-piperazin-1-ylmethyl]-2-phenyl-quinoline-4-carboxylic acid ((S)-1-cyclohexyl-ethyl)-amide], the melting point is reported as 126 to 128 °C. For `CC(NC(=O)c1c(CN2CCN(C[C@H](O)CO)C(=O)C2)c(-c2ccccc2)nc2ccc(F)cc12)C1CCCCC1` (stereo partly drawn) [Example 21, 3-[4-((S)-2,3-Dihydroxy-propyl)-3-oxo-piperazin-1-ylmethyl]-6-fluoro-2-phenyl-quinoline-4-carboxylic acid (1-cyclohexyl-ethyl)-amide], the melting point was 190 to 192 °C. In the case of `C[C@H](NC(=O)c1c(CN2CCN(C[C@@H](O)CO)C(=O)C2)c(-c2ccccc2)nc2ccc(F)cc12)C1CCCCC1` [Example 22, 3-[4-((R)-2,3-Dihydroxy-propyl)-3-oxo-piperazin-1-ylmethyl]-6-fluoro-2-phenyl-quinoline-4-carboxylic acid ((S)-1-cyclohexyl-ethyl)-amide], the melting point is reported as 143 to 145 °C. Work on `C[C@H](NC(=O)c1c(CN2CCN(C[C@H](O)CO)C(=O)C2)c(-c2cccs2)nc2ccccc12)C1CCCCC1` [Example 23, 3-[4-((S)-2,3-Dihydroxy-propyl)-3-oxo-piperazin-1-ylmethyl]-2-thiophen-2-yl-quinoline-4-carboxylic acid ((S)-1-cyclohexyl-ethyl)-amide] yielded a melting point of 115 to 117 °C. `C[C@H](NC(=O)c1c(CN2CCN(C(=O)NCCO)CC2)c(-c2ccccc2)nc2ccccc12)C1CCCCC1` [Example 25, 3-[4-(2-Hydroxy-ethylcarbamoyl)-piperazin-1-ylmethyl]-2-phenyl-quinoline-4-carboxylic acid ((S)-1-cyclohexyl-ethyl)-amide] gave a melting point of 155 to 157 °C.
